What was measured:
[1] = test system: CD133+ pancreatic cancer stem cells (L3.6pl cells); experiment: CD133 content by flow cytometry in L3.6pl pancreatic cancer cells; format: cell-based, human; details: 48 hours of therapy; Gemcitabine 100 ng/ml
Description: In this experiment, potentially effective substances for the targeted elimination of CD133^+ pancreatic cancer stem cells (CSC) were screened by means of flow cytometry following 48 hours of therapy. […] As a Gemcitabine concentration of 100 ng/ml was the lowest concentration capable of achieving a strong relative enrichment for CD133^+ cells through depletion of CD133^− cells, this concentration was chosen for subsequent experiments.
Human pancreatic cancer cell line. The highly metastatic human pancreatic cell line L3.6pl was maintained in DMEM medium (Invitrogen, Karlsruhe, Germany) with 12% Fetal Calf Serum (Biochrom, Berlin, Germany), Glutamax (Invitrogen), non-essential amino acids, and vitamins (all from PAN, Aidenbach, Germany) (Hermann et al., 2007, supra). Cultures were kept no longer than 4 weeks after recovery from frozen stocks. CSC spheres were cultured in DMEM-F12 supplemented with B27 (Gibco, Karlsruhe, Germany) and FGF-2 (PeproTech EC, London, United Kingdom) (Hermann et al., 2007, supra).
Cytometry. Pancreatic CSC were identified by CD133/1-APC or CD133-PE (Miltenyi, Bergisch-Gladbach, Germany) (Hermann et al., 2007, supra). Side population experiments were performed as described by Goodell et al. (1996) (see Goodell et al., 1996, J Exp Med 183, 1797-1806) and cells were identified by exclusion of the vital dye Hoechst 33342. To detect activation of the PI3K/Akt/mTOR pathway by means of the phosphorylation status of the s6 ribosomal protein (s6rp), cells cultivated with standard medium were stained with a rabbit anti-phospho-S6 ribosomal protein antibody (Cell Signalling Technology, Danvers, Mass.).
In vitro treatment of pancreatic cancer cells. […] For the evaluation of the in vivo tumorigenicity, […] L3.6pl cells were pretreated with the respective regimen and the remaining viable cells were orthotopically implanted into the pancreas of nude mice and evaluated on day 35. For the systemic infusion assay, cells were labelled with the Qtracker 800 labelling kit (Invitrogen) according to the manufacturer's instructions, and 5×10^5 cells were injected intravenously into mice. After 4 weeks, explanted lungs were scanned for metastases with a near-infrared imaging platform (Odyssey, Li-cor, Lincoln, Nebr.). Positive signals were verified by histology (H&E staining).
Using SB431542, a specific inhibitor of the receptors for Nodal and Activin, ALK-4 and -7 respectively, it was investigated whether the content of the CD133(+) population is affected by inhibition of Activin/Nodal signaling. As mutations affecting the TGF-superfamily pathway are very common in pancreatic neoplasms, pancreatic cell lines harboring different mutations in this pathway were screened (Table 1).

[2] = test system: primary human pancreatic cancer cells; experiment: CSC content by flow cytometry in primary pancreatic cancer cells from patients; format: cell-based; details: freshly isolated primary pancreatic cancer cells
Description: The findings from Examples 1.1 and 1.2 in tumour cell lines were reproduced in primary patient tissue with viability tested with propidium iodide (FIGS. 4A-4D).
The findings from Examples 2.1 in tumour cell lines were reproduced in fresh primary tumour cells from patients with pancreatic cancer with viability tested with propidium iodide (FIGS. 13A-13D). In vitro treatment with the combined therapy of 100 ng/ml Gemcitabine and 5 μM SB431542 led to the elimination of CD 133^+ cancer stem cells.
Primary human pancreatic cancer cells. Human pancreatic cancers were obtained with written informed consent from all patients. Tissue fragments were minced with scissors into small (1-2 mm^3) fragments. Enzymatic digestion was performed using a mixture of DMEM medium and collagenase (Stem Cell Technologies, Vancouver, Canada) for 90 min at 37° C. (Hermann et al., 2007, supra).
Cytometry. Pancreatic CSC were identified by CD133/1-APC or CD133-PE (Miltenyi, Bergisch-Gladbach, Germany) (Hermann et al., 2007, supra). Side population experiments were performed as described by Goodell et al. (1996) (see Goodell et al., 1996, J Exp Med 183, 1797-1806) and cells were identified by exclusion of the vital dye Hoechst 33342. […]

[3] = test system: orthotopically implanted tumour cells; experiment: In vivo treatment of orthotopic tumours with Gemcitabine and SB431542; parameters: species or system mice
Description: Seven days after orthotopic implantation of tumour cells, therapy with either Gemcitabine alone or in combination with targeted Nodal/Activin inhibition by SB431542 was initiated. The double combination therapy was stopped after 14 days of treatment, the single Gemcitabine treatment was continued until sacrifice of the animals. 35 days after tumour cell treatment, PET scans were done and evaluation of tumour volume was performed on day 42.

Nc1ccn(C2OC(CO)C(O)C2(F)F)c(=O)n1 (stereo not shown) [Gemcitabine, 4-amino-1-[3,3-difluoro-4-hydroxy-5-(hydroxymethyl)tetrahydrofuran-2-yl]-1H-pyrimidin-2-one]
CD133+ cell content [1]: marked enrichment
CSC fraction (CD133+ and CD24+CD44+EpCAM+ populations) [2]: tended to relatively enrich
tumour size ([3]; mouse, in vivo): reduction of tumour size
tumour formation / tumour incidence ([3]; therapy from day 7, combination 14 days, PET day 35, volume day 42): unaffected

From patent US20110151020A1, “ACTIVE SUBSTANCE COMBINATION WITH GEMCITABINE FOR THE TREATMENT OF EPITHELIAL CANCER” (priority 2008, published 2011)
